Patent US20110028447A1, “INDAZOLE DERIVATIVES” (Pfizer Inc., priority 2008, published 2011)
Read-outs that look alike come from different tables or passages of the source.

Key:
human CB1 receptor [1] = target: T1, human CB1 receptor (Homo sapiens, UniProt P21554); test: [35S] GTPγS binding on membranes of CHO cells expressing the human CB1 receptor (agonism); assay type: biochemical; set-up: expressed in transfected cells; membrane preparation
Method: Membrane preparation: CHO cells expressing the human CB1 receptor were grown to 80% confluence in Ham's F-12 Nutrient Medium (Invitrogen) containing 10% fetal bovine serum (Invitrogen), 1% pen/strep (Invitogen), 1% Nonessential amino acids (Invitrogen) and 500 μg/ml G418 (Invitrogen). Cells were released from flasks using Cell Dissociation Buffer (Invitrogen). Cells were pelleted by centrifugation at 500×G for 5 minutes. Membranes were prepared by resuspending cells in ice cold Assay Buffer (25 mM Tris pH 7.4, 5 mM EDTA, 5 mM EGTA, Complete Protease Inhibitor (Roche)). Cells were lysed with 12 strokes of a dounce homogenizer. Unlysed cells were pelleted by centrifugation at 500×G for 5 minutes. Membranes were pelleted by centrifugation at 25,000×G for 30 minutes. Membranes were resuspended in TEE, dounced 12 strokes, and pelleted a second time at 25,000×G for 30 minutes. Membrane pellet was resuspended in 50 mM Tris pH 7.4, 100 mM NaCl, 3 mM MgCl2, 0.2 mM EGTA, Complete Protease Inhibitor (Roche). Protein concentration was determined using the Micro-BCA Protein Assay Kit (Pierce) using BSA as a standard. Membranes were frozen and stored at −80 degrees Celsius until use.
GTPγS Binding: 40 μl of test compound was incubated with 20 μl of [^35S] GTPγS (Perkin Elmer) (1250 Ci/millimole) and 140 μl of membrane homogenate (5 μg/well) in polypropylene 96-well plates (Corning). Final reaction conditions were 50 mM Tris pH 7.4, 100 mM NaCl, 3 mM MgCl2, 0.2 mM EGTA, 0.04% BSA. After incubation at 37 degrees Celsius for 45 minutes reactions were harvested by vacuum filtration through Unifilter GF/B-96 filters (Perkin Elmer) using a FilterMate Plate Harvester (Perkin Elmer). Filters were rinsed 4 times with ice cold 50 mM Tris pH 7.4, 3 mM MgCl2, 0.2 mM EGTA and dried at 50 degrees Celsius for at least 30 minutes. 40 μl of Microscint-20 (Perkin Elmer) was added per well, and plates were counted using a Top-Count Microplate Scintillation Counter (Perkin Elmer). Binding data were analyzed and EC50 values were calculated using Graph Pad Prism 4.0 Software.

human CB1 receptor [2] = target: T1, human CB1 receptor; test: Human CB1 receptor binding, [3H] CP-55,940 displacement on HEK cell membranes; set-up: expressed in transfected cells; host or cells: HEK cells, doxycycline-induced; membrane preparation
Outline: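 Radioligand displacement: [3H] CP-55,940 at […] final, 1 μg membrane protein per well from HEK cells with tetracycline-inducible human CB1, 60 min at room temperature, pH 7.4 Tris/NaCl/MgCl2/EGTA/BSA buffer. 50 μM WIN-55,212-2 set nonspecific binding; bound label filtered, counted, and fitted for EC50 and Ki values.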

[3] = GTPγS EC50, human CB1, CHO cell membranes
[4] = human CB1, CHO cell membranes, read-out: GTPγS EC50

T1 sequence (P21554 whole entry): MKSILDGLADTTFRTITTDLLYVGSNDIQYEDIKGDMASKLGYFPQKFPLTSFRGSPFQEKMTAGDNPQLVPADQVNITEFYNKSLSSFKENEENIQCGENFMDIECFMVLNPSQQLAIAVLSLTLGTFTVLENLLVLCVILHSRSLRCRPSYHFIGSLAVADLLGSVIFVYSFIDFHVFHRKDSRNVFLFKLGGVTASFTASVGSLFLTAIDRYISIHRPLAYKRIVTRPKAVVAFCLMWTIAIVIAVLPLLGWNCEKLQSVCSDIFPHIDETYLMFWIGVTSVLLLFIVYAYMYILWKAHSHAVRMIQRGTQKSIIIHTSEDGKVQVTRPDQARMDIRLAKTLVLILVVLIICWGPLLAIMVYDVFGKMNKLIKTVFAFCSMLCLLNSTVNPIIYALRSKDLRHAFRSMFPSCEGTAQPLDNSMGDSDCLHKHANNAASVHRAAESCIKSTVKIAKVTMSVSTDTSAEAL

Compound | EC50 (human CB1 receptor [1]; [3]) [nM] | Ki (human CB1 receptor [2]; CB1 Ki) [nM] | EC50 (human CB1 receptor [1]; [4]) [nM] | Ki (human CB1 receptor [2]; read-out: CB1 Ki) [nM]
CC(C)(C)[C@H](NC(=O)c1nn(Cc2ccc(C#N)cc2)c2ccccc12)C(=O)NCCCO [Example 67] | 827 | 46.5 |  | 
Cc1cc(CNC(=O)c2nn(Cc3ccc(C#N)cc3)c3ccccc23)c(C)o1 [Example 68] | 90.1 | 4.61 |  | 
CC(C)(C)[C@H](NC(=O)c1nn(Cc2ccc(C#N)cc2)c2ccccc12)C(=O)NCCO [Example 69] | 183 | 18.8 |  | 
CC(C)(C)[C@H](NC(=O)c1nn(Cc2ccc(C#N)cc2)c2ccccc12)c1nnc(N)o1 [Example 71] |  |  | 314 | 8.85
CC(C)(C)[C@H](NC(=O)c1nn(Cc2ccccc2)c2ccccc12)C(=O)NC[C@H](O)CO [Example 73] | 217 | 22.9 |  | 
CC(C)(C)C(NC(=O)c1nn(Cc2ccc(F)cc2)c2ccccc12)C(=O)NCC(O)CO (stereo not drawn) [Example 77] | 48.1 | 5.39 |  | 
CC(C)(C)C(NC(=O)c1nn(Cc2ccc(F)cc2)c2ccccc12)c1nnc(NC(=O)C2CC2)o1 (stereo not drawn) [Example 78] |  |  | 2.88 | 0.59
CC(C)(C)C(NC(=O)c1nn(Cc2ccc(F)cc2)c2ccccc12)C(=O)NCC(O)CO (stereo not drawn) [Example 79] | 27.1 | 2.02 |  | 
CC(C)(C)C(NC(=O)c1nn(Cc2ccc(F)cc2)c2ccccc12)C(=O)NC1CC1 (stereo not drawn) [Example 80] | 1.82 | 0.21 |  | 
CC(C)(C)C(NC(=O)c1nn(Cc2ccc(F)cc2)c2ccccc12)C(=O)NCCO (stereo not drawn) [Example 81] | 0.98 | 0.32 |  | 
CC(C)(C)C(NC(=O)c1nn(Cc2ccc(F)cc2)c2ccccc12)C(=O)NCC(N)=O (stereo not drawn) [Example 82] | 22.1 | 1.12 |  | 
CC(C)(C)C(NC(=O)c1nn(Cc2ccccc2)c2ccccc12)C(=O)NCCNC(N)=O (stereo not drawn) [Example 83] | 720 | 15.3 |  | 
CC(C)(C)C(NC(=O)c1nn(Cc2ccc(F)cc2)c2ccccc12)C(=O)NCCNC(N)=O (stereo not drawn) [Example 85] | 16.1 | 1.72 |  | 
CC(C)(C)C(NC(=O)c1nn(Cc2ccc(C#N)cc2F)c2ccccc12)C(N)=O (stereo not drawn) [Example 86] | 34.2 | 2.75 |  | 
CC(C)(C)C(NC(=O)c1nn(Cc2ccc(C#N)cc2F)c2ccccc12)C(=O)NC1CC1 (stereo not drawn) [Example 87] | 46.1 | 2.26 |  | 
CC(C)(C)C(NC(=O)c1nn(Cc2ccc(C#N)cc2F)c2ccccc12)c1nnc(NC(=O)C2CC2)o1 (stereo not drawn) [Example 88] |  |  | 132 | 15.4
CC(C)(C)C(NC(=O)c1nn(Cc2ccc(C#N)cc2F)c2ccccc12)C(=O)NCC(O)CO (stereo not drawn) [Example 89] | 539 | 63.4 |  | 
CC(C)(C)C(NC(=O)c1nn(Cc2ccc(C#N)cc2F)c2ccccc12)C(=O)NCC(O)CO (stereo not drawn) [Example 90] | 385 | 27.4 |  | 
CC(C)(C)C(NC(=O)c1nn(Cc2ccc(C#N)cc2F)c2ccccc12)C(=O)NCCO (stereo not drawn) [Example 91] | 53.8 | 1.87 |  | 
CC(C)(C)C(NC(=O)c1nn(Cc2ccc(C#N)cc2F)c2ccccc12)C(=O)NCC(N)=O (stereo not drawn) [Example 92] | 265 | 14.1 |  | 

Compound | EC50 (human CB1 receptor [1]; [3]) [nM] | Ki (human CB1 receptor [2]; CB1 Ki) [nM] | EC50 (human CB1 receptor [1]; [4]) [nM] | Ki (human CB1 receptor [2]; read-out: CB1 Ki) [nM]
CC(C)(C)C(NC(=O)c1nn(Cc2ccc(C#N)cc2F)c2ccccc12)C(=O)NCCCO (stereo not drawn) [Example 93] | 41.8 | 14.3 |  | 
CC(C)(C)C(NC(=O)c1nn(Cc2ccc(C#N)cc2F)c2ccccc12)C(=O)NCCNC(N)=O (stereo not drawn) [Example 94] | 77 | 27.5 |  | 
CC(C)(C)C(NC(=O)c1nn(Cc2ccc(C#N)cc2F)c2ccccc12)c1nnc(N)o1 (stereo not drawn) [Example 95] |  |  | 13.7 | 2.22
CC(C)(C)C(NC(=O)c1nn(Cc2ccccc2)c2ccccc12)C(=O)NCCNS(=O)(=O)C1CC1 (stereo not drawn) [Example 96] |  |  | 16.9 | 1.18
CC(C)(C)[C@H](NC(=O)c1nn(Cc2ccc(C#N)cc2)c2ccccc12)C(=O)NCCNS(=O)(=O)C1CC1 [Example 97] |  |  | 16.7 | 1.04
CC(C)(C)[C@H](NC(=O)c1nn(Cc2ccc(C#N)cc2F)c2ccccc12)C(=O)NCCNS(=O)(=O)C1CC1 [Example 98] |  |  | 8.63 | 0.98
CC(C)(C)[C@H](NC(=O)c1nn(Cc2ccc(F)cc2)c2ccccc12)C(=O)NCCNS(=O)(=O)C1CC1 [Example 99] |  |  | 0.5 | 0.18
CC(C)(C)[C@H](NC(=O)c1nn(Cc2ccc(F)cc2)c2ccccc12)C(=O)NCCNC(=O)C1CC1 [Example 103] |  |  | 9.08 | 2.68
CC(C)(C)[C@H](NC(=O)c1nn(Cc2ccc(C#N)cc2)c2c(F)cccc12)C(=O)NC1CC1 [Example 108] | 27 | 3.78 |  | 
CC(C)(C)[C@H](NC(=O)c1nn(Cc2ccc(C#N)cc2)c2c(F)cccc12)C(=O)NCCCO [Example 109] | 110 | 8.14 |  | 
CC(C)(C)[C@H](NC(=O)c1nn(Cc2ccc(C#N)cc2)c2c(F)cccc12)C(=O)NCC(N)=O [Example 110] | 237 | 28.9 |  | 
CC(C)(C)[C@H](NC(=O)c1nn(Cc2ccc(C#N)cc2)c2c(F)cccc12)C(N)=O [Example 111] | 9.73 | 0.72 |  | 
CC(C)(C)[C@H](NC(=O)c1nn(Cc2ccc(C#N)cc2)c2c(F)cccc12)c1nnc(N)o1 [Example 112] |  |  | 31.8 | 0.51
CC(C)(C)[C@H](NC(=O)c1nn(Cc2ccc(C#N)cc2)c2c(F)cccc12)C(=O)NC[C@H](O)CO [Example 113] | 188 | 7.79 |  | 
CC(C)(C)[C@H](NC(=O)c1nn(Cc2ccc(C#N)cc2)c2c(F)cccc12)C(=O)NCCNS(=O)(=O)C1CC1 [Example 115] |  |  | 8.72 | 1.09
CC(C)(C)[C@H](NC(=O)c1nn(Cc2ccc(C#N)cc2)c2c(F)cccc12)C(=O)NCc1nnc(C(N)=O)o1 [Example 116] |  |  | 49.6 | 13.5
CC(C)(C)[C@H](NC(=O)c1nn(Cc2ccc(C#N)cc2)c2c(F)cccc12)C(=O)NC(CO)CO [Example 117] | 168 | 9.54 |  | 
CC(C)(C)C(NC(=O)c1nn(Cc2ccc(F)cc2)c2ccccc12)c1nnc(NC(N)=O)o1 (stereo not drawn) [Example 118] |  |  | 23.8 | 0.7
CC(C)(C)C(NC(=O)c1nn(Cc2ccc(F)cc2)c2ccccc12)c1nnc(CC(N)=O)o1 (stereo not drawn) [Example 120] |  |  | 40 | 3.05
